Patent US11351178B2, “Selective HDAC6 inhibitors” (ITALFARMACO S.P.A., priority 2017, dated 2022)
Where two headings read alike, the source gives them in different places.

Key:
[1] = system: peripheral blood mononuclear cells (PBMCs); assay: Cytotoxicity on PBMCs (CellTiter 96); assay type: cell-based; conditions: PBMC, 72 h; read-out: PBMC TOXICITY (72 h)
Protocol: Cytotoxic activity was evaluated on B 697 […] cell line for all synthesized compounds and on peripheral blood mononuclear cells (PBMCs) for compounds showing a good potency/selectivity profile.
Cells were seeded in plate (2×10^4 cells per well for 697, 5×10^5 cells per well for PBMCs). The test compounds (concentrations from 1.5 nM to 10000 nM for PBMCs and from 1 nM to 10000 nM for 697) were added after 24 hours and incubated 72 hours. The molecules cytotoxic activity was evaluated using CellTiter 96© Aqueous One Solution Cell Proliferation Assay (Promega), which measures the mitochondria function, following the manufacturer's instructions.

[2] = Stability to Phase I metabolism in human S9 liver fraction; assay type: in vitro ADME
Protocol: Test compounds were incubated in rat and human liver S9 fraction at 37° C. up to 90 minutes in order to evaluate their stability to Phase I metabolism by hepatic enzymes. […] The reaction was stopped placing samples on ice bath and adding acidified acetonitrile. After centrifugation (10 minutes at 14000 rpm) an aliquot of the supernatant was diluted water, filtered with 0.45 μm regenerated cellulose syringe filters and injected in HPLC-UV or in LC-MS/MS. The percentages of the amount remaining at the various incubation times with respect to the initial amount were calculated. The intrinsic clearance was also calculated.

[3] = target: T1, recombinant human HDAC6 (Homo sapiens, UniProt Q9UBN7); assay: Enzymatic screening on recombinant human HDAC6; assay type: biochemical; conditions: Table 2
T1 sequence (Q9UBN7 1-1215): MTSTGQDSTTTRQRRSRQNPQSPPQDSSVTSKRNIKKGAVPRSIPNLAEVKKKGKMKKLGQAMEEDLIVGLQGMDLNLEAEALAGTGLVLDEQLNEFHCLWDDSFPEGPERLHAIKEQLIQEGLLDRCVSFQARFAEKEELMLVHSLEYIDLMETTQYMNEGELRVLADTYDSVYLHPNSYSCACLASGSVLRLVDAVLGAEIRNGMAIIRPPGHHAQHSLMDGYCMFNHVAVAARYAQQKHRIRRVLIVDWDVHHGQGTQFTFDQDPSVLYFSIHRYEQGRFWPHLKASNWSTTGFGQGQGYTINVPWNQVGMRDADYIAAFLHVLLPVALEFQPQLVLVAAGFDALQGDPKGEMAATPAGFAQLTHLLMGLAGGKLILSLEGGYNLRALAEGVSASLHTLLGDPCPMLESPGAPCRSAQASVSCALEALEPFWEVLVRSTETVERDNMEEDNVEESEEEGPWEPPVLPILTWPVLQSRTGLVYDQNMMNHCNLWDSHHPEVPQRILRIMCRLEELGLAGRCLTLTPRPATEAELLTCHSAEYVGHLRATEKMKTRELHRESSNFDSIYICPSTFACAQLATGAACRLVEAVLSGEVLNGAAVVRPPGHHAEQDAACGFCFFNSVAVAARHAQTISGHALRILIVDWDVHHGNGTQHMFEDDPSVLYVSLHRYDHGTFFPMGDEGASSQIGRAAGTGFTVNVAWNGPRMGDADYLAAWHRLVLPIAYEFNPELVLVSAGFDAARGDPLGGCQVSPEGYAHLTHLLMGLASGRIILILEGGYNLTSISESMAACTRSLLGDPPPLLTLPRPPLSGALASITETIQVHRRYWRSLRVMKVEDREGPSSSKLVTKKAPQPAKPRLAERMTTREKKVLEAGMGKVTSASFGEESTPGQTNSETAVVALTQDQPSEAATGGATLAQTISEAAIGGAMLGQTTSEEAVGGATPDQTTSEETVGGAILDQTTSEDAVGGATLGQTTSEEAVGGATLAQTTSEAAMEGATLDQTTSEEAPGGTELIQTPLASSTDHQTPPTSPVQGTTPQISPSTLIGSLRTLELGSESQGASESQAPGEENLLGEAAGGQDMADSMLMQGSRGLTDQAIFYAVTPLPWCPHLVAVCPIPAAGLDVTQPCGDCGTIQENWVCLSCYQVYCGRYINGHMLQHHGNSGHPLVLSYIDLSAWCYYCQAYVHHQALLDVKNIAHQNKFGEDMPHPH
In short: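 Deacetylase activity of recombinant human isoforms is measured with FLUOR DE LYS, FLUOR DE LYS-Green or trifluoroacetyl-L-lysine substrates, supplied at 2× in 25 mM Tris-HCl, pH 8, 130 mM NaCl, 0.05% Tween-20, 10% glycerol. Both the enzyme-compound preincubation, of isoform-specific length, and the substrate reaction run at 30 °C.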

[4] = system: B 697 promyelocytic cell line; assay: Cytotoxicity on 697 cell line (CellTiter 96); assay type: cell-based; conditions: 72 hours incubation, read-out: 697 TOXICITY
In short: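 Mitochondrial-function readout (CellTiter 96 Aqueous One) after 72 h compound exposure, begun 24 h post-seeding. Dose ranges: 697 cells, 1 to 10000 nM at 2×10^4 cells/well; PBMCs, 1.5 to 10000 nM at 5×10^5 cells/well.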

[5] = Stability in rat plasma; assay type: in vitro ADME; conditions: after 4 hours, 37° C.
In short: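 Compounds incubated at 37° C in rat or human plasma at 50 μM (UV/HPLC) or 1 or 2 μM (LC-MS/MS) for 0–4 h. Reaction stopped with acidified acetonitrile on ice; percent remaining versus initial amount and plasma half-life calculated.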

[6] = Stability in human plasma; assay type: in vitro ADME; conditions: after 4 hours, 37° C.
Protocol: In order to evaluate the stability to circulating enzymes, test compounds were incubated in human and rat plasma at 37° C. in a thermostated oscillating bath. Each test compound was incubated at μM (50 μM when the samples were analysed by UV/HPLC, 1 or 2 μM when the samples were analysed by LC-MS/MS) concentration for 0, 15, 30 min and 1, 2 and 4 hours. The reaction was stopped placing tubes on ice bath and adding acidified acetonitrile. After centrifugation for 10 minutes at 14000 rpm, an aliquot of the supernatant was diluted with water, filtered with 0.45 μm syringe filters and injected in HPLC-UV or in LC-MS/MS. The percentages of amount remaining at the various times of incubation with respect to initial amount were calculated. The half-life in plasma was also calculated.

[7] = Stability to Phase I metabolism in rat S9 liver fraction; assay type: in vitro ADME; conditions: after 90 min, 37° C.
In short: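 Phase I stability in human and rat hepatic S9 at 37 °C, sampled up to 90 min. Samples were stopped with acidified acetonitrile on ice, then quantified by HPLC-UV or LC-MS/MS.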

[8] = human liver S9 fraction, after 90 min, 37° C.

SMILES | IC50 [1] | residual percentage in human S9 fraction ([2]; human, 90 min, pH 7.4) | IC50 ([3]; read-out: HDAC6 IC50) | IC50 [4] | residual percentage in rat plasma [5] | residual percentage in human plasma [6] | residual percentage in rat S9 fraction [7] | residual percentage in human S9 fraction [2, 8] | IC50 ([3]; HDAC6 IC50 (nM))
CC1(C)CC(=O)c2c(S(C)(=O)=O)sc(-c3nnn(Cc4ccc(C(=O)NO)cc4)n3)c2C1 [compound 74] | 2 µM | 84% | 17 nM | 2.28 µM | 94% | 100% | 61% | – | –
Cn1c(Sc2c(F)cc(C(=O)NO)cc2F)nnc1-c1coc(CN2CCOCC2)c1 [comp. 203, 3,5-difluoro-4-[[4-methyl-5-[5-(morpholinomethyl)-3-furyl]-1,2,4-triazol-3-yl]sulfanyl]benzenecarbohydroxamic acid] | > 10 µM | 74% | 14 nM | 15.2 µM | 94% | 95% | 58% | – | –
Cn1c(Sc2c(F)cc(C(=O)NO)cc2F)nnc1-c1ccccn1 [comp. 14, 3,5-difluoro-N-hydroxy-4-((4-methyl-5-(pyridin-2-yl)-4H-1,2,4-triazol-3-yl)thio)benzamide] | > 10 µM | 87% | 8 nM | 3.94 µM | 38% | 77% | 88% | – | –
O=C(NO)c1ccc(Cc2nnc(-c3ccccc3)s2)cc1 [compound 190, 4-[(5-phenyl-1,3,4-thiadiazol-2-yl)methyl]benzenecarbohydroxamic acid] | 0.983 µM | 64% | 3 nM | 0.333 µM | 73% | 99% | 9% | – | –
Cn1c(Sc2c(F)cc(C(=O)NO)cc2F)nnc1-c1ccc(CCN2CCCC2)nc1 [comp. 210, 3,5-difluoro-4-[[4-methyl-5-[6-(2-pyrrolidin-1-ylethyl)-3-pyridyl]-1,2,4-triazol-3-yl]sulfanyl]benzenecarbohydroxamic acid] | > 10 µM | 80% | 7 nM | 10.4 µM | 84% | 79% | 71% | – | –
Cc1cc(-c2nnc(Sc3c(F)cc(C(=O)NO)cc3F)n2C)nn1C [comp. 100, 4-[[5-(1,5-dimethylpyrazol-3-yl)-4-methyl-1,2,4-triazol-3-yl]sulfanyl]-3,5-difluoro-benzenecarbohydroxamic acid] | 10 µM | – | – | 7.09 µM | 80% | 92% | 30% | 76% | 7 nM
O=C(NO)c1ccc(Cn2nnnc2-c2ccccn2)cc1 [comp. 20, N-hydroxy-4-((5-(pyridin-2-yl)-1H-tetrazol-1-yl)methyl)benzamide] | 2 µM | 101.7% | 4 nM | 1.12 µM | 98.5% | 94.3% | 88% | – | –
O=C(NO)c1cc(F)c(Cn2nnc(-c3ncccn3)n2)c(F)c1 [comp. 7] | 10 µM | – | – | 4.19 µM | 77% | 93% | 96% | 89% | –
O=C(NO)c1ccc(Cn2nnc(-c3ccccc3)n2)cc1 [comp. 214, 4-[(5-phenyltetrazol-2-yl)methyl]benzenecarbohydroxamic acid] | – | 73% | 3 nM | 0.409 µM | 60% | 92% | 9% | – | –
CN1CCN(Cc2ccc(-c3nnc(Sc4c(F)cc(C(=O)NO)cc4F)n3C)o2)CC1 [comp. 205, 3,5-difluoro-4-[[4-methyl-5-[5-[(4-methylpiperazin-1-yl)methyl]-2-furyl]-1,2,4-triazol-3-yl]sulfanyl]benzenecarbohydroxamic acid] | – | 95% | 5 nM | 15.4 µM | 89% | 80% | 71% | – | –
CCN(CC)Cc1cc(-c2nnc(Sc3c(F)cc(C(=O)NO)cc3F)n2C)c(C)o1 [comp. 213, 4-[[5-[5-(diethylaminomethyl)-2-methyl-3-furyl]-4-methyl-1,2,4-triazol-3-yl]sulfanyl]-3,5-difluoro-benzenecarbohydroxamic acid] | – | 63% | 13 nM | 15.4 µM | 80% | 97% | 58% | – | –
